Laboratory results: ChEMBL document CHEMBL1134135, “Nitrobenzene compounds inhibit expression of VCAM-1” (Bioorg Med Chem Lett, 2001)

target: T1, Vascular cell adhesion protein 1 (Homo sapiens, UniProt P19320); assay: Ability to inhibit expression of Vascular cell adhesion molecule 1; No effect
T1 sequence (P19320 whole entry): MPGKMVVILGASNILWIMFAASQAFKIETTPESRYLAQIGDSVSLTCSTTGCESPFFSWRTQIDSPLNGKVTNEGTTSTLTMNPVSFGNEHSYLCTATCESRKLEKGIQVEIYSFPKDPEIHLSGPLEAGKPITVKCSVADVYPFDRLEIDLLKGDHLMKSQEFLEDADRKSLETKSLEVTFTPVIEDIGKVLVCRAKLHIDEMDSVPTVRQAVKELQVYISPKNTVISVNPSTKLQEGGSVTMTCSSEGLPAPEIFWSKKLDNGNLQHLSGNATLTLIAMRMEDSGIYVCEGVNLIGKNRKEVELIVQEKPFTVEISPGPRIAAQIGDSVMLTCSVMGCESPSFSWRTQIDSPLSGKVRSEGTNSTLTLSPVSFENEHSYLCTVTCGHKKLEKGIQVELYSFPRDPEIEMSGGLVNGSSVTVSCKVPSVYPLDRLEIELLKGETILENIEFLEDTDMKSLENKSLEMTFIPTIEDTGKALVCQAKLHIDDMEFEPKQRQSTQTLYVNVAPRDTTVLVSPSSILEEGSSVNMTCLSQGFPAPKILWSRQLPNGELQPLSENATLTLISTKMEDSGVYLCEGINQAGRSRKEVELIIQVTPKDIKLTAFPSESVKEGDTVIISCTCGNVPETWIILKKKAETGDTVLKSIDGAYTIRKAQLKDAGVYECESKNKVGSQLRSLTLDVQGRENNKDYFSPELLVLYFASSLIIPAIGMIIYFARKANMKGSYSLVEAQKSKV

SMILES	IC50
O=C(O)C1CCN(S(=O)(=O)c2ccc(Cl)c([N+](=O)[O-])c2)CC1	Not Active
CCN(CC)S(=O)(=O)c1cccc([N+](=O)[O-])c1	Not Active
CCN(CC)S(=O)(=O)c1ccc(Cl)cc1	Not Active
N#Cc1cc(Cl)cc(Cl)c1	Not Active
O=[N+]([O-])c1ccccc1Cl	Not Active
CCN(CC)c1ccc(S(=O)(=O)N(CC)CC)cc1[N+](=O)[O-]	Not Active
